Here are results for ten compounds from patent publication US20030186967A1, “Acylresorcinol derivatives are selective vitronectin receptor inhibitors” (American Home Products Corporation, priority 1998, published 2003).

Where a name gives a salt, the structure may show the parent alone. Read-outs that look alike come from different tables or passages of the source. Ends that are not written are not given here.

Series [1] deals with thyro-parathyroidectomized (TPTX) rats. In words: PTH-induced hypercalcemia of thyroparathyroidectomized male rats. The class given is in vivo, rat. The settings on record: Rattus norvegicus. On the procedure: Effects of test compounds on PTH-induced hypercalcemia of thyroparathyroidectomized male rats
Male thyro-parathyroidectomized (TPTX) rats (Charles River) were randomly assigned to groups of 7 rats/group. Following a baseline serum calcium determination an Alzet 1003D minipump (Alza Corporation, Palo Alto, Calif.) loaded with 0.3 mg/ml PTH (Bachem, Philadelphia, Pa.) was implanted subcutaneously in each rat. For evaluation of prophylactic effects of a test drug, another minipump with appropriate concentration of the test drug solution was implanted subcutaneously at a site away from PTH minipump. Alternatively, test drugs were administered by oral gavage as a solution or uniform suspension in an appropriate medium depending on the physical properties of the test compound. A group of 7 unimplanted TPTX rats was set aside as a normal control group. Twenty hours after minipump implantation blood was collected from each rat to confirm the presence of hypercalcemia (judged by elevation of serum calcium levels, 2 SD>normal non-implanted level). At various intervals between 0.5 and 24 hours after dosing (usually one to three time points), blood was collected from each rat and the serum evaluated for total calcium. Serum calcium levels were measured using the Nova 7+7 calcium auto analyzer spectrophotometrically using the Sigma test kit (#587A). Test results were determined by the difference in serum calcium between vehicle and treatment group following PTH administration, using a one-way analysis of variance with Dunnett's test or other multiple comparison methods.

A further series addresses T1, αVβ3 integrin (Homo sapiens, UniProt P05106+P06756).
T1 construct: αVβ3-expressing cell lines are maintained by standard tissue culture techniques; endogenous in cells; host or cells: αVβ3-expressing cell lines
In words: Osteopontin-αVβ3 Cell Attachment Assay. The format is cell-based. On the procedure:
Osteopontin-αVβ3 Cell Attachment Assay The purpose of this assay is to measure the effect of various compounds on the RGD-dependent attachment of cells to osteopontin mediated by the αVβ3 integrin. […] Following the blocking period, wells are aspirated and washed once with D-PBS. Cell Suspension αVβ3-expressing cell lines are maintained by standard tissue culture techniques. […] The cells are pelleted by low-speed centrifugation and washed three times with 0.5 mg/mL trypsin inhibitor in D-PBS (Sigma). The final cell pellet is resuspended in cell suspension media at a concentration of 10^6 cells/mL. Attachment Assay Incubation: […] of diluted test compound is added to osteopontin-coated wells (in triplicate) followed by […] of cell suspension; background cell attachment is determined in uncoated wells. The plate is incubated at 25° C. in a humidified air atmosphere for 1.5 hours. Following the incubation period, the wells are gently aspirated and washed once with D-PBS. Cell Number Detection: The number of cells attached is determined by an MTT dye conversion assay (Promega) according to the manufacturer's instructions. Briefly, MTT dye is diluted in cell suspension media (15:85) and […] is added to each well. […] The assay plates are covered and incubated at 37° C. in a humidified air atmosphere overnight. […] Reference Compounds Various […]

In a further series the test system is osteoclasts. In words: Osteoclast Pitting Assay. The class given is cell-based, rat. On the procedure: The assay is conducted as described in Murrills and Dempster (1990). Briefly, 4×4×0.2 mm slices of devitalized bovine cortical bone are numbered, placed in the wells of 96-well culture plates and wetted with 100 ul of Medium 199 containing Hanks salts, 10 mM HEPES, pH 7.0 (Medium 199/Hanks). Bone cell suspensions containing osteoclasts are prepared by mincing the long bones of neonatal rats (Sprague-Dawley, 4-6 days old) in Medium 199/Hanks. 100 uL of the suspension is then plated onto each slice and incubated 30 minutes to allow osteoclasts to adhere. The slices are rinsed to remove non-adherent cells and incubated 24 h in Medium 199 containing Earle's salts, 10 mM HEPES and 0.7 g/L NaHCO3, which equilibrates at pH 6.9 in a 5% CO2 atmosphere. At this pH the adherent osteoclasts excavate an adequate number of resorption pits for assay purposes. Slices are fixed in 2.5% glutaraldehyde and osteoclasts counted following tartrate-resistant acid phosphatase staining. […] All cells are stripped from the slice by sonication on 0.25M NH4OH and the resorption pits formed by the osteoclasts during the experiment stained with toluidine blue. Resorption pits are quantified by manually counting.
The experiments are conducted according to a block design with osteoclasts from each animal exposed to each treatment. Three replicate slices are used per treatment per animal, such that a total of 96 slices are examined for an experiment involving four animals and eight treatments (including control). Several parameters are recorded on a “per slice” basis: number of pits, number of osteoclasts, number of pits per osteoclast, number of fibroblast-like bone cells. SAS or JMP statistical software is used for statistical analysis. […] IC50s are calculated for active compounds using dose-response curves.
Reference Compound: Rat calcitonin.
Osteoclasts are responsible for the bone loss that occurs in the onset of osteoporosis and anti-resorptive drugs directed against the osteoclast are a requirement for patients losing bone.

The target in series [2] is T2, Vitronectin receptor αVβ3 (Homo sapiens, UniProt P05106+P06756).
T2 construct: expressed in transfected cells; host or cells: 512P5 cells (plasma membrane preparation)
In words: Vitronectin Receptor αVβ3 Binding Assay. The settings on record: read-out: VnR (IC50μM).

Setting [3] is: Osteoclast Pitting Assay, neonatal rat osteoclasts on bovine cortical bone slices, read-out: IC50 (μM) Bone Pitting.

T1 sequence (P06756 31-889 limits assumed): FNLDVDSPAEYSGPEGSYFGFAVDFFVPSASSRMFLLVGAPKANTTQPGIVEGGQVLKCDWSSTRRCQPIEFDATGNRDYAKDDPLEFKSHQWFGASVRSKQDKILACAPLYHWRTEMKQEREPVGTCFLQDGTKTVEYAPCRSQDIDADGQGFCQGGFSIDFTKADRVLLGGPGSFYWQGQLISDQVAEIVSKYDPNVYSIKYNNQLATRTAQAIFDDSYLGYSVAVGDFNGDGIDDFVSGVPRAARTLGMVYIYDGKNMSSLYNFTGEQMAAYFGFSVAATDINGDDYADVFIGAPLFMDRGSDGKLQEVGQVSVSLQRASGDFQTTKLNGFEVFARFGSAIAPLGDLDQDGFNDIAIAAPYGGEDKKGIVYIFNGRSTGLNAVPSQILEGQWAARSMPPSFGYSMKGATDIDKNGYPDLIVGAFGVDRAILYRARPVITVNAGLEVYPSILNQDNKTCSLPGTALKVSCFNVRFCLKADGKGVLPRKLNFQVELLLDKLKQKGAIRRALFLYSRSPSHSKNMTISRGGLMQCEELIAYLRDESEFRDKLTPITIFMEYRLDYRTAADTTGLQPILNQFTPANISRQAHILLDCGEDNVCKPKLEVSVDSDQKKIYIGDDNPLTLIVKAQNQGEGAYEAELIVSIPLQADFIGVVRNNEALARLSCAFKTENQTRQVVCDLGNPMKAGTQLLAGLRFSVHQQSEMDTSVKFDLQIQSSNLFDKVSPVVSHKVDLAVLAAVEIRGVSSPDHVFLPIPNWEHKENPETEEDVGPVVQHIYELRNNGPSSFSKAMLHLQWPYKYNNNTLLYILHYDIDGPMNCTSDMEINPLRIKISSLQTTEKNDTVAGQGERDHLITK
T1 sequence (P06756 891-1048 partner limits assumed): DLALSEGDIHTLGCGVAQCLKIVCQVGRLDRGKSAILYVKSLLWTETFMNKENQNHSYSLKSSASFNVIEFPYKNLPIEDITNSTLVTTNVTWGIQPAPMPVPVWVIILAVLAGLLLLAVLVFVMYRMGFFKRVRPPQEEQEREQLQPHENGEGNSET
T1 sequence (P05106 27-788): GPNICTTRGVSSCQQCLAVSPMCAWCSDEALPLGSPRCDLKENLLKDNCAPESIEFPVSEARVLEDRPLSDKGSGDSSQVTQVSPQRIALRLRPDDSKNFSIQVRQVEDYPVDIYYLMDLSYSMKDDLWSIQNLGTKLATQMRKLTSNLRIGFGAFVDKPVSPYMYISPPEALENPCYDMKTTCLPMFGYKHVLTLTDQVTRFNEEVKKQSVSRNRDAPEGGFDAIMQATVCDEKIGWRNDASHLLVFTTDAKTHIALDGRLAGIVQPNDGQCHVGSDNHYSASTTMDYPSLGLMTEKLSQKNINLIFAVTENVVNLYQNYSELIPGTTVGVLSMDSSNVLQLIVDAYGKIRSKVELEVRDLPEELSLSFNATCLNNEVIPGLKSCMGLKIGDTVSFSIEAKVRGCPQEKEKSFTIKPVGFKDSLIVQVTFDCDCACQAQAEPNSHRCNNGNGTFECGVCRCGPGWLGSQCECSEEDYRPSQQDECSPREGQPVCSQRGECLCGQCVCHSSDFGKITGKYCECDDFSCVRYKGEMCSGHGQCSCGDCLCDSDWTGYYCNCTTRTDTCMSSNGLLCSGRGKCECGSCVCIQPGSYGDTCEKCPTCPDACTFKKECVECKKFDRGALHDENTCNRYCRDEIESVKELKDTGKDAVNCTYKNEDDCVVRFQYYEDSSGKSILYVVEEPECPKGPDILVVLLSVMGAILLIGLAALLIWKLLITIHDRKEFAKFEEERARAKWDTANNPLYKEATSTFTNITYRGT
T2 sequence (P06756 31-889 limits assumed): as the sequence (P06756 31-889 limits assumed) above
T2 sequence (P06756 891-1048 partner limits assumed): as the sequence (P06756 891-1048 partner limits assumed) above
T2 sequence (P05106 27-788): as the sequence (P05106 27-788) above

Broadly, the inhibition in vivo is the drop in the measured response relative to a control, in per cent. Turning to `O=C(NC[C@H](NS(=O)(=O)c1ccccc1)C(=O)O)c1ccc(OCCNc2ncccn2)cc1O` [Example 274], the inhibition in vivo at 100 mg/kg in series [1] (sc) was 54%. In addition, the IC50 against αVβ3 integrin was 18 µM; in the series on osteoclasts (setting [3]) it was 0.9 µM.

For `O=C(NC[C@H](NS(=O)(=O)c1ccccc1)C(=O)O)c1ccc(OCCNC2=NCCCN2)cc1O` [Example 275, 2(S)-Benzenesulfonylamino-3-[2-hydroxy-4-[2-(3,4,5,6-tetrahydro-pyrimidin-2-ylamino)ethoxy]benzoylamino]propionic acid hydrochloride], the inhibition in vivo at 100 mg/kg in series [1] (po) was 39%; in series [1] (sc) it was 112%. In series [1] (sc, 30 mg/kg), the inhibition in vivo at 30 mg/kg was 64%. Also, the inhibition in vivo at 75 mg/kg in series [1] (sc, 75 mg/kg) is 105%. Further, the figures for the IC50 on αVβ3 integrin and in the series on osteoclasts (setting [3]) were 0.002 µM and 0.43 µM, respectively.

For the compound `CCOC(=O)[C@H](CNC(=O)c1ccc(OCCNC2=NCCCN2)cc1O)NS(=O)(=O)c1ccccc1` [Example 276, hydrochloride], the inhibition in vivo at 100 mg/kg in series [1] (sc) is 170%. For the same compound, the IC50 turned out to be 0.12 µM at αVβ3 integrin and 0.15 µM with osteoclasts (setting [3]).

Take `CCOC(=O)[C@H](CNC(=O)c1ccc(OCCNC2=NCCCN2)cc1O)NC(=O)OCc1ccccc1` [Example 277, 2(S)-Benzyloxycarbonylamino-3-[2-hydroxy-4-[2-(3,4,5,6-tetra-hydropyrimidin-2-ylamino)ethoxy]benzoylamino]propionic acid ethyl ester hydrochloride]: the values for the inhibition in vivo at 100 mg/kg in series [1] (po) and in series [1] (sc) were 79% and 86%, respectively. For the same compound, the results for the IC50 at αVβ3 integrin and in the series on osteoclasts (setting [3]) were 0.05 µM and 0.4 µM, respectively.

On to `O=C(N[C@@H](CNC(=O)c1ccc(OCCNC2=NCCCN2)cc1O)C(=O)O)OCc1ccccc1` [Example 278, 2(S)-Benzyloxycarbonylamino-3-[2-hydroxy-4-[2-(3,4,5,6-tetrahydro-pyrimidin-2-ylamino)ethoxy]benzoylamino]propionic acid hydrochloride], for which the results for the IC50 on αVβ3 integrin and with osteoclasts (setting [3]) were 0.02 µM and 0.5 µM, respectively.

For `N=C(N)NCCOc1ccc(C(=O)NC(CC(=O)O)c2ccccc2)c(O)c1` (stereo not drawn) [Example 280, 3-[4-Guanidinoethoxy)-2-hydroxy-benzoylamino]-3-phenylpropanoic acid, hydrochloride], the results for the IC50 (in series [2]; on αVβ3 integrin) were 12.3 µM and 78 µM, respectively. The “IC50 (μM) Bone Pitting” value in the series with osteoclasts (Osteoclast Pitting Assay, neonatal rat osteoclasts on bovine cortical bone slices) is “inactive @ 200”.

`CCOC(=O)CC(NC(=O)c1ccc(OCCNc2ncccn2)cc1O)c1ccccc1` (stereo not drawn) [Example 288, 3-[2-hydroxy-4-[2-(pyrimidin-2-ylamino)-ethoxy]benzoyl-amino]-3-phenyl-propanoic acid ethyl ester]: the IC50 is 0.003 µM in series [2] and 0.44 µM with osteoclasts (Rattus norvegicus, Osteoclast, read-out: bone pitting IC50).

For `O=C(N[C@@H](CNC(=O)c1ccc(OCCNc2ncccn2)cc1O)C(=O)O)OCc1ccccc1` [Example 297, 2(S)-Benzyloxycarbonylamino-3-[2-hydroxy-4-[2-(pyrimidin-2-ylamino)ethoxy]-benzoylamino]propionic acid], the IC50 at αVβ3 integrin stood at 50 µM; in the series with osteoclasts (setting [3]) it was 25 µM.

As a reminder, the melting point is the temperature, or range, at which the solid turns liquid. Compound `CCOC(=O)[C@H](CNC(=O)c1ccc(OCCNc2ncccn2)cc1O)NC(=O)OCc1ccccc1` [Example 299, 2(S)-Benzyloxycarbonylamino-3-[2-hydroxy-4-[2-(pyrimidin-2-ylamino)ethoxy]-benzoylamino]propionic acid ethyl ester hydro-chloride] returned a melting point of 124 to 125 °C. Also, the inhibition in vivo at 100 mg/kg in series [1] (po) was 102%. Moreover, the “IC50 (μM) Cell” value against αVβ3 integrin was “inactive @ 100”. Also, in the series on osteoclasts (setting [3]), the IC50 amounted to 1.9 µM.

As for “Calcitonin: anti-resorptive used in the clinic; rat calcitonin is the reference compound of the pitting assay (CGNLSTCMLGTYTQDLNKFHTFPQTSIGVGAP; ends and bridges not checked; cysteine pairing not given here; UniProt P01257 85-116, looked up) [reference compound]”, in the series on osteoclasts, the osteoclast inhibitory activity entry was “significant osteoclast inhibitory activity”.
